In patent US20260070886A1, “QUINOLINE PIPERAZINE DERIVATIVES, PHARMACEUTICAL COMPOSITION AND USES THEREOF” (priority 2022, published 2026):

How the values were obtained:
Type in all cases: cell-based
[1] = tested on: NCI-H-522 cells; test: Cell cytotoxicity assay, NCI-H-522 cells; conditions: Homo sapiens, NCI-H522, 72 hours, percent cytotoxicity against DMSO control; for cytotoxicity at 1 µM: 1 μM compound, read-out: Cell toxicity NCI-H-522 cells 1 μM; for cytotoxicity at 10 µM: 10 μM compound, read-out: Cell toxicity NCI-H-522 cells 10 μM
Source text: (§1) The following human derived non-small cell lung cancer cell lines were used to test the efficiency of the compounds to cause cell death and assess the anti-cancer properties of said compounds: 1. A549 cells: adenocarcinomic human alveolar basal epithelial cells; these cells are used as models for the study of lung cancer and the development of drug therapies against it • 2. NCI-H-460 cells are also human lung cancer cells, and • 3. NCI-H-522 cells are also human lung cancer cells.
(§2) 500 cells/well/30 μL were seeded in a 384 well cell culture plate. Incubated over night at 37° C., 5% CO2 in cell culture incubator. 10 μL of 4× compound was added to the plates, and incubated for 72 hours at 37° C., 5% CO2 in cell culture incubator. Assay DMSO control were included for 0% cytotoxicity control. Assay was terminated by addition of 10 μL of the reagent CTG 2.0 detection reagent #G9242. Plates were incubated for 20 minute incubation at room temperature with shaking Plate were read in Envision. Ultrasensitive luminescence and data was analyzed and percent cytotoxicity of compounds was determined against DMSO control.
(§3) All the compounds, A1-A116, were tested for cell toxicity using said non-small cell lung cancer cell lines using the above described method.

[2] = tested on: NCI-H-460 cells; test: Cell cytotoxicity assay, NCI-H-460 cells; conditions: Homo sapiens, NCI-H460, 72 hours, percent cytotoxicity against DMSO control; for cytotoxicity at 1 µM: 1 μM compound, read-out: Cell toxicity NCI-H-460 cells 1 μM; for cytotoxicity at 10 µM: 10 μM compound, read-out: Cell toxicity NCI-H-460 cells 10 μM
Source text: as §1, §2, §3

[3] = tested on: A549 cells; test: Cell cytotoxicity assay, A549 cells; conditions: Homo sapiens, 72 hours, percent cytotoxicity against DMSO control; for cytotoxicity at 1 µM: 1 μM compound, read-out: Cell toxicity A549 cells 1 μM; for cytotoxicity at 10 µM: 10 μM compound, read-out: Cell toxicity A549 cells 10 μM
Source text: as §1, §2, §3

[4] = tested on: Non-small cell lung cancer cell lines; test: Cell toxicity assay, overall statement; conditions: summary in words of Table 6
Source text: as §1, §2, §3
These selected derivatives of Formula A were further tested to confirm their efficiency as anti-cancer compounds.

| Structure (SMILES) | cytotoxicity at 1 µM [1] [%] | cytotoxicity at 10 µM [1] [%] | cytotoxicity at 1 µM [2] [%] | cytotoxicity at 10 µM [2] [%] | cytotoxicity at 1 µM [3] [%] | cytotoxicity at 10 µM [3] [%] | activity against Non-small cell lung cancer (cell toxicity) [4] |
| --- | --- | --- | --- | --- | --- | --- | --- |
| COc1cc(Nc2nc(C)cc(N3CCN(c4ccnc5cc(Cl)ccc45)CC3)n2)cc(C(F)(F)F)c1 [Compound A2, 4-(4-(7-chloroquinolin-4-yl)piperazin-1-yl)-N-(3-methoxy-5-(trifluoromethyl)phenyl)-6-methylpyrimidin-2-amine] | 4 | 14 | -8 | -3 | 9 | 1 | active |
| COc1cccc(Nc2nc(C)cc(N3CCN(c4ccnc5cc(Cl)ccc45)CC3)n2)c1 [Compound A4, 4-(4-(7-chloroquinolin-4-yl)piperazin-1-yl)-N-(3-methoxyphenyl)-6-methylpyrimidin-2-amine] | 14 | 57 | -4 | 71 | 47 | 95 | active |
| COc1cc(F)cc(Nc2nc(C)cc(N3CCN(c4ccnc5cc(Cl)ccc45)CC3)n2)c1 [Compound A5, 4-(4-(7-chloroquinolin-4-yl)piperazin-1-yl)-N-(3-fluoro-5-methoxyphenyl)-6-methylpyrimidin-2-amine] | 6 | 22 | -8 | 7 | 24 | 5 | active |
| COc1cc(Nc2nc(N3CCN(c4ccnc5cc(Cl)ccc45)CC3)cc(C(F)(F)F)n2)cc(C(F)(F)F)c1 [Compound A6, 4-(4-(7-chloroquinolin-4-yl)piperazin-1-yl)-N-(3-methoxy-5-(trifluoromethyl)phenyl)-6-(trifluoromethyl)pyrimidin-2-amine] | 7 | 21 | -7 | -1 | 15 | 4 | active |
| COc1cccc(Nc2nc(N3CCN(c4ccnc5cc(Cl)ccc45)CC3)cc(C(F)(F)F)n2)c1 [Compound A8, 4-(4-(7-chloroquinolin-4-yl)piperazin-1-yl)-N-(3-methoxyphenyl)-6-(trifluoromethyl)pyrimidin-2-amine] | 1 | 7 | -9 | -3 | 14 | 5 | active |
| Cc1cc(N2CCN(c3ccnc4cc(Cl)ccc34)CC2)nc(N2CCCC2)n1 [Compound A11, 7-chloro-4-(4-(6-methyl-2-(pyrrolidin-1-yl)pyrimidin-4-yl)piperazin-1-yl)quinoline] | 2 | 9 | -12 | -4 | 16 | 10 | active |
| Cc1cc(N2CCN(c3ccnc4cc(Cl)ccc34)CC2)nc(N2CCCCC2)n1 [Compound A12, 7-chloro-4-(4-(6-methyl-2-(piperidin-1-yl)pyrimidin-4-yl)piperazin-1-yl)quinoline] | 5 | 99 | -9 | 99 | 10 | 99 | active |
| Cc1cc(N2CCN(c3ccnc4cc(Cl)ccc34)CC2)nc(N2CCCCCC2)n1 [Compound A13, 4-(4-(2-(azepan-1-yl)-6-methylpyrimidin-4-yl)piperazin-1-yl)-7-chloroquinoline] | 3 | 48 | -11 | 47 | 14 | 88 | active |
| Cc1cc(N2CCN(c3ccnc4cc(Cl)ccc34)CC2)nc(N2CCOCC2)n1 [Compound A16, 4-(4-(4-(7-chloroquinolin-4-yl)piperazin-1-yl)-6-methylpyrimidin-2-yl)morpholine] | 8 | 12 | -11 | -6 | 9 | -17 | active |
| FC(F)(F)c1cc(N2CCN(c3ccnc4cc(Cl)ccc34)CC2)nc(N2CCCC2)n1 [Compound A19, 7-chloro-4-(4-(2-(pyrrolidin-1-yl)-6-(trifluoromethyl)pyrimidin-4-yl)piperazin-1-yl)quinoline] | 11 | 48 | -8 | 45 | 25 | 87 | active |
| FC(F)(F)c1cc(N2CCN(c3ccnc4cc(Cl)ccc34)CC2)nc(N2CCCCC2)n1 [Compound A20, 7-chloro-4-(4-(2-(piperidin-1-yl)-6-(trifluoromethyl)pyrimidin-4-yl)piperazin-1-yl)quinoline] | 8 | 43 | -10 | 60 | 37 | 89 | active |
| FC(F)(F)c1cc(N2CCN(c3ccnc4cc(Cl)ccc34)CC2)nc(N2CCCCCC2)n1 [Compound A21, 4-(4-(2-(azepan-1-yl)-6-(trifluoromethyl)pyrimidin-4-yl)piperazin-1-yl)-7-chloroquinoline] | 1 | 9 | -15 | -8 | 13 | 23 | active |
| FC(F)(F)c1cc(N2CCN(c3ccnc4cc(Cl)ccc34)CC2)nc(N2CCNCC2)n1 [Compound A22, 7-chloro-4-(4-(2-(piperazin-1-yl)-6-(trifluoromethyl)pyrimidin-4-yl)piperazin-1-yl)quinoline] | 1 | 11 | -14 | -2 | 11 | 17 | active |
| CN1CCN(c2nc(N3CCN(c4ccnc5cc(Cl)ccc45)CC3)cc(C(F)(F)F)n2)CC1 [Compound A23, 7-chloro-4-(4-(2-(4-methylpiperazin-1-yl)-6-(trifluoromethyl)pyrimidin-4-yl)piperazin-1-yl)quinoline] | 1 | 9 | -15 | -2 | 12 | 13 | active |
| FC(F)(F)c1cc(N2CCN(c3ccnc4cc(Cl)ccc34)CC2)nc(N2CCOCC2)n1 [Compound A24, 4-(4-(4-(7-chloroquinolin-4-yl)piperazin-1-yl)-6-(trifluoromethyl)pyrimidin-2-yl)morpholine] | 0 | 8 | -9 | -6 | -1 | 22 | active |
